Assay results as given in patent US6048890A, “Phenylamidinothiophene derivatives and anti-inflammatory agent containing the same” (Kaken Pharmaceutical Co., Ltd., priority 1995, dated 2000).
Where “and” joins values, the source holds several entries; their conditions need not be identical. Identical values can stand only once. Like-named read-outs stand apart in the source and are kept apart here.

Experiments:
[1] = system: rat adjuvant arthritis; experiment: Action on rat adjuvant arthritis (paw swelling inhibition); assay type: in vivo, male Lewis rats; settings: mean of 4 rats (standard error); for Swelling inhibition (%), Primary inflammation (inoculated paw): measured 3 days after adjuvant inoculation; for Swelling inhibition (%), Secondary inflammation (uninoculated paw): measured 17 days after adjuvant inoculation
Description: Seven-week old male Lewis rats (4 rats in one group) were injected under the plantar skin of the right hind paw with 0.6 mg/0.1 ml of a suspension of human tubercle bacillus, killed Mycobacterium tuberculosis H37 RA in liquid paraffin, thereby inducing adjuvant arthritis. The volume of the adjuvant-inoculated paw (primary inflammation) was measured 3 days after the inoculation of adjuvant and the volume of the adjuvant-uninoculated paw (secondary inflammation) 17 days after the inoculation of adjuvant. The swelling rate of each paw was calculated with respect to the volume of the paw before the inoculation of adjuvant. Ten mg of the instant compound was suspended in 10 ml of a 0.5% by weight aqueous solution of carboxymethyl cellulose and the oral administration of the obtained suspension began on day of adjuvant inoculating and continued for 17 days in a dose of 10 mg/kg one time per day.
The swelling rate and inhibition rate were calculated according to the following formulae: [formula]
Each value is an average value for 4 rats in one group and the value in parentheses is standard error.

[2] = biological target: T1, cyclooxygenase of sheep seminal vesicle gland (Ovis aries, UniProt P05979); experiment: Action on activity of cyclooxygenase of sheep seminal vesicle gland; assay type: biochemical
T1 construct: purchased CAYMAN CO., LTD; host or cells: sheep seminal vesicle gland
T1 sequence (P05979 25-600): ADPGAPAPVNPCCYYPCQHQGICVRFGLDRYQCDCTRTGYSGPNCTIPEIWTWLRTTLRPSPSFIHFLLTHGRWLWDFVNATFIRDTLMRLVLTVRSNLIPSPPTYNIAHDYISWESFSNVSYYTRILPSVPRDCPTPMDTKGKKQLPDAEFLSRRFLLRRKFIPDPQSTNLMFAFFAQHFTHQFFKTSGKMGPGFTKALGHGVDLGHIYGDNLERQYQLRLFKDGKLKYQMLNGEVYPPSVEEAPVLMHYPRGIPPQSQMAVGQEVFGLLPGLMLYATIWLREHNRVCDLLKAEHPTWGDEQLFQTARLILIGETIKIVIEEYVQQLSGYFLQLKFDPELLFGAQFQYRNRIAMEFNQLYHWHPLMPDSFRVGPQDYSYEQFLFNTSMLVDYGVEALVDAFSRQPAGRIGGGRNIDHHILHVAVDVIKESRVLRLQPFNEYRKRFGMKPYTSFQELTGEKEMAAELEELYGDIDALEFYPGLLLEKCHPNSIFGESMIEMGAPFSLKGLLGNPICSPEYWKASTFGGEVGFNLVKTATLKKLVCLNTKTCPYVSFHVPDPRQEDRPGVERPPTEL
Description: Two hundred and fifty μl of an enzyme solution containing each test compound [5 mM triptophan, 200 nM hematin, 0.04% by weight Tween 20, 10 units of cyclooxygenase of sheep seminal vesicle gland (made by CAYMAN CO., LTD.), 2 μM [1-^14 C] arachidonic acid, 0.1 M Tris-hydrochloric acid buffer solution (pH: 8.0)], underwent a reaction at 25° C. for 6 minutes. The reaction was terminated by addition of 0.5 ml of a 0.2 M citric acid buffer solution (pH 3.0). [1-^14 C]arachidonic acid was extracted with ethyl acetate and separated by a thin layer chromatography. The radioactivity of the resulting arachidonic acid fraction was determined with a scintillation counter and the inhibition was calculated.
The inhibition value was calculated according to the following formula: [formula]

[3] = system: stress ulcer in mice; assay type: in vivo; settings: for Ulcer index: 15 minutes before 7 h constraint under water immersion, average of sum of ulcer lengths
Description: Six-week old male ddy […] (10 rats in one group) were completely fasted overnight and then loaded with constraint under water immersion for 7 hours. The rats were observed under a stereoscopic microscope to examine production of gastric ulcer. Sum (mm) of lengths of ulcers for each animal was taken as ulcer index. Ten mg, 30 mg or 100 mg of the instant compound was mixed with 0.15 ml of Tween 80 and suspended into a 0.5% by weight aqueous solution of gum arabic to give a total 10 ml of a suspension. The suspension was orally administered 15 minutes before loading of the constraint under water immersion. Indomethacin was used as a comparative drug.
The test results are shown in Table 3 in terms of an average value of ulcer indexes.

[4] = 10 mg/kg oral once daily for 17 days
[5] = comparative drug, 1 mg/kg, 1 mg/kg
[6] = comparative drug, 1 mg/kg, listed as indomethacin, 1 mg/kg

Row | SMILES | Swelling inhibition (%), Primary inflammation (inoculated paw) [1, 4] | Swelling inhibition (%), Secondary inflammation (uninoculated paw) [1, 4] | also measured
1 | CS(=O)(=O)c1ccc(-c2cc(C(=N)Nc3cccc(Cl)c3)sc2-c2ccc(F)cc2)cc1 [Example 1, 5-[N^1-(3-chlorophenyl)amidino]-2-(4-fluorophenyl)-3-(4-methylsulfonylphenyl)thiophene] | 31.5% and 31.5 (0.91) % | 48.9% and 48.9 (3.58) % | inhibition at 100 µM ([2]; 10^-4 M, pH 8.0, 25° C., 6 minutes, average of two experiments): -2.2%; inhibition at 10 µM ([2]; 10^-5 M, pH 8.0, 25° C., 6 minutes, average of two experiments): 1.3%; inhibition at 1 µM ([2]; 10^-6 M, pH 8.0, 25° C., 6 minutes, average of two experiments): 3.4%; Inhibition of cyclooxygenase activity (in words) ([2]; even in 10^-4 M added group): did not inhibit the activity of cyclooxygenase; Ulcer index ([3]; 10 mg/kg oral): 6.5 mm; Ulcer index ([3]; 30 mg/kg oral): 10.8 mm; Ulcer index ([3]; 100 mg/kg oral): 9.6 mm; Ulcer index / ulcer-exacerbating action (in words) ([3]; compared with solvent-given group, up to 100 mg/kg (Example 1), 1 and 3 mg/kg (indomethacin)): no evident difference in ulcer index was observed even in the group given 100 mg/kg
2 | CS(=O)(=O)c1ccc(-c2cc(C(=N)Nc3ccccc3)sc2-c2ccc(F)cc2)cc1 [Example 2] | 22.6 (5.24) % | 28.4 (2.55) % | 
3 | CS(=O)(=O)c1ccc(-c2cc(C(=N)Nc3ccccc3Cl)sc2-c2ccc(F)cc2)cc1 [Example 3] | 22.1 (4.94) % | 32.2 (10.8) % | 
4 | CS(=O)(=O)c1ccc(-c2cc(C(=N)Nc3ccc(Cl)cc3)sc2-c2ccc(F)cc2)cc1 [Example 4] | 32.7 (7.40) % | 57.4 (8.54) % | 
5 | CS(=O)(=O)c1ccc(-c2cc(C(=N)Nc3cccc(F)c3)sc2-c2ccc(F)cc2)cc1 [Example 5] | 23.5 (4.75) % | 34.7 (4.26) % | 
6 | CS(=O)(=O)c1ccc(-c2cc(C(=N)Nc3ccc(F)cc3)sc2-c2ccc(F)cc2)cc1 [Example 6] | 26.3 (4.37) % | 57.2 (5.34) % | 
7 | CS(=O)(=O)c1ccc(-c2cc(C(=N)Nc3ccc(Br)cc3)sc2-c2ccc(F)cc2)cc1 [Example 7] | 36.1 (6.36) % | 48.8 (3.20) % | 
8 | COc1ccc(NC(=N)c2cc(-c3ccc(S(C)(=O)=O)cc3)c(-c3ccc(F)cc3)s2)cc1 [Example 11] | 35.0 (10.1) % | 37.1 (4.42) % | 
9 | CS(=O)(=O)c1ccc(-c2cc(C(=N)Nc3ccc(F)cc3F)sc2-c2ccc(F)cc2)cc1 [Example 12] | 18.2 (2.73) % | 24.9 (10.2) % | 
10 | CS(=O)(=O)c1ccc(-c2cc(C(=N)Nc3ccc(Cl)cc3Cl)sc2-c2ccc(F)cc2)cc1 [Example 13] | 16.7 (3.25) % | 24.2 (5.05) % | 
11 | CS(=O)(=O)c1ccc(-c2cc(C(=N)Nc3ccc(Cl)c(Cl)c3)sc2-c2ccc(F)cc2)cc1 [Example 17] | 27.4 (7.02) % | 44.1 (3.83) % | 
12 | CS(=O)(=O)c1ccc(-c2cc(C(=N)Nc3ccc(F)c(Cl)c3)sc2-c2ccc(F)cc2)cc1 [Example 18] | 27.9 (3.09) % | 48.9 (9.69) % | 
13 | COc1ccc2c(c1)c(CC(=O)O)c(C)n2C(=O)c1ccc(Cl)cc1 [Indomethacin, indomethacin, reference compound] |  |  | Swelling inhibition (%), Primary inflammation (inoculated paw) [1, 5]: 28.3 (4.10) %; Swelling inhibition (%), Primary inflammation (inoculated paw) [1, 6]: 28.8%; Swelling inhibition (%), Secondary inflammation (uninoculated paw) [1, 5]: 43.6 (9.42) %; Swelling inhibition (%), Secondary inflammation (uninoculated paw) [1, 6]: 43.6%; Inhibition of cyclooxygenase activity (in words) ([2]; 10^-6 M): completely inhibited the activity; inhibition at 0.1 µM ([2]; 10^-7 M, pH 8.0, 25° C., 6 minutes, average of two experiments): 66.2%; Concentrations at which the activity of cyclooxygenase was inhibited ([2]; dependent on dosage): ≥ 10^-8 M
